Measurements: article PMC3944516, “Isolation and Characterization of Anti-Adenoviral Secondary Metabolites from Marine Actinobacteria” (Marine Drugs, 2014)
“Also recorded” adds a separate entry of the source.

Assays:
HAdV type 5 [1] = assay: quantitative real-time PCR (qPCR) anti-adenoviral dose-response assay; format: cell-based, human adenovirus type 5 (strain F2853-5b) in A549 cells; conditions: for EC50: Human mastadenovirus C, A549 host cells, qPCR of viral genomes after 24 h, duplicates; for anti-adenoviral activity (in words): dose-response up to 0.4 mM, qPCR 24 h post infection (Figure 8B)
Description: In order to confirm the antiviral activity observed during the screening campaign (Figure 3) and determine the EC50 values of the analogs, we conducted a dose-response experiment by a standardized quantitative real-time PCR (qPCR) assay (Figure 5). In this assay, the number of adenoviral genomes is assessed in relationship to the number of cells and the replication of HAdV type 5 on A549 host cells was assessed.
Figure 5 Dose-response study of the identified compounds on HAdV type 5. Each concentration point was run in duplicate and qPCR-analysis performed after 24 h. The amount of HAdV type 5 genomes in each treated sample was compared to infected but non-treated samples to obtain the inhibition of the percentage of control (y-axis). See the experimental section for details.
The quantitative Real Time PCR (qPCR) assay was performed as previously described. Briefly, A549 cells in 24 well plates (Nunc™ #142475) were infected with HAdV type 5 (1 pg per cell) and incubated with compound for 24 h. Thereafter, cellular and viral DNA was prepared using a QIAamp DNA blood minikit (Qiagen, Solna, Sweden) and quantitative real-time PCR was used to detect newly synthesized viral DNA and the inhibitory effect of the compounds. The principle of quantitative real-time PCR and the design of primers and probes for analysis of various HAdV types representing different adenovirus species have previously been described. Quantitative real-time PCR was carried out using a primer pair and a FAM-labeled probe detecting and amplifying the viral hexon gene. The amount of detected viral hexon DNA was normalized to the cellular RNaseP gene. Real-time PCR was performed in an ABI Prism 7900HT sequence detector and analyzed with Sequence Detector software version 2.4 (Applied Biosystems®, Life Technologies, Grand Island, NY, USA).
Determination of the EC50 values was performed with non-linear regression analysis with a variable slope using GraphPad Prism software version 6.0c (GraphPad Software, San Diego, CA, USA).

[2] = XTT based cytotoxicity test on A549 cells; format: cell-based, human; conditions: human, A549 cells, 24 h, XTT, normalized against DMSO controls, two independent experiments; for viability at 24 h, 400 µM: read-out: % Viable Cells at 400 μM; for viability at 24 h, 800 µM: read-out: % Viable Cells at 800 μM
Excerpt: (§1) Consideration of cellular cytotoxicity is essential when identifying antiviral compounds. Compounds that negatively interfere with the proliferation or viability of host cells will be recorded as false positives when assayed for antiviral activity. […] The XTT test measures the ability of mitochondrial enzymes to reduce 2,3-bis-(2-methoxy-4-nitro-5-sulfophenyl)-2H-tetrazolium-5-carboxanilide to a colored formazan dye that is spectrophotometrically quantified. […] Strikingly, butenolide 4 with the non-functionalized side-chain affected the viability dramatically. At both 400 and 800 μM of 4 the percentage of viable cells was close to zero, whereas for butenolide 1–3 the cells were as viable as the DMSO control at the concentrations tested. […] To further elucidate this difference and determine whether the cytotoxicity was cell type specific, we performed a dose-response experiment and investigated the cytotoxicity on human diploid fibroblasts derived from foreskin (FSU). FSU cells are isolated from the dermis of juvenile foreskin and, unlike A549 cells, are not derived from carcinoma, but primary cells with a limited expected number of cell divisions. […] However, the butenolide 4 with a non-functionalized side-chain reduced the viability of A549 cells and FSU cells to almost zero at 400 and 800 μM. […] The reason for the steep concentration dependence on cytotoxicity for the butenolide 4 containing a non-functionalized side-chain is presently unknown, and the large difference in cytotoxic potential between 4 and the other analogs is noteworthy when considering the minor structural differences in their side-chains.
(§2) The potential cytotoxic effect of the compounds was determined with XTT-based Cell Proliferation Kit II (Roche Applied Science, Penzberg, Germany). This method is a colorimetric assay based on the cleavage of the tetrazolium salt XTT to a soluble formazan salt by viable cells. Approximately, 13,000 A549 cells were seeded per well in 96-well plates on the day before addition of compounds. The next day, the growth medium was removed from the wells and replaced with 100 μL of phenol-red free DMEM with 2% FBS containing compound. In parallel, an amount of DMSO corresponding to the same amount of test compound was added to the cells and the plate was incubated at 37 °C for 20 h. Subsequently, 50 μL of XTT solution was added per well and the plate was incubated at 37 °C for 4 h and finally the intensity of the formazan dye was measured by spectrophotometry at a wavelength of 490 nm.

A549 cells = assay: XTT based cytotoxicity test on A549 cells; format: cell-based, human; conditions: for concentration above which the viability of the cells is significantly reduced: A549 cells, XTT (Figure 8C)
Excerpt: as §1, §2

[3] = system: FSU cells (human diploid fibroblasts derived from foreskin); assay: XTT based cytotoxicity dose-response on FSU cells; format: cell-based; conditions: 24 h
Excerpt: as §1
Figure 6 The cytotoxicity profile of butenolide ketone 3 and butenolide 4 with a non-functionalized side chain, on two cell lines, A549 cells and FSU cells, analyzed after 24 h. See experimental section for details.
as §2

HAdV type 5 [4] = assay: time-of-addition assay (qPCR); format: cell-based, human adenovirus type 5 in A549 cells
Description: Figure 7 Characterization of the antiviral activity of the butenolide ketone 3. The antiviral activity of the compounds was obtained by comparing the amount of HAdV type 5 genomes per cell to non-treated but infected control samples (y-axis). (A) Time-of-addition assay where 200 μM of butenolide ketone 3 was added at different time points in comparison to the addition of HAdV 5 at time 0 h. Samples were analyzed 24 h after the infection (+24 h) with qPCR; (B) Binding assay with ^35S-labelled HAdV 5 virions, with 200 μM compound 3 pretreated A549 cells for 1.5 h prior time-of-infection (TOI) and no pretreatment; (C) Virucidal assay where HAdV 5 virions were pretreated with 200 μM of butenolide ketone 3 prior addition to A549 cells and analyzed after 24 h. […]
The quantitative Real Time PCR (qPCR) assay was performed as previously described. […] Thereafter, cellular and viral DNA was prepared using a QIAamp DNA blood minikit (Qiagen, Solna, Sweden) and quantitative real-time PCR was used to detect newly synthesized viral DNA and the inhibitory effect of the compounds. The principle of quantitative real-time PCR and the design of primers and probes for analysis of various HAdV types representing different adenovirus species have previously been described. Quantitative real-time PCR was carried out using a primer pair and a FAM-labeled probe detecting and amplifying the viral hexon gene. […]

[5] = system: HAdV 5 virions binding to A549 cells; assay: binding assay with 35S-labelled HAdV 5 virions; format: cell-based, human adenovirus type 5 in A549 cells; conditions: A549 cells pre-treated with 200 μM for 1.5 h, compared to the control
Description: (§3) Figure 7 Characterization of the antiviral activity of the butenolide ketone 3. The antiviral activity of the compounds was obtained by comparing the amount of HAdV type 5 genomes per cell to non-treated but infected control samples (y-axis). (A) Time-of-addition assay where 200 μM of butenolide ketone 3 was added at different time points in comparison to the addition of HAdV 5 at time 0 h. Samples were analyzed 24 h after the infection (+24 h) with qPCR; (B) Binding assay with ^35S-labelled HAdV 5 virions, with 200 μM compound 3 pretreated A549 cells for 1.5 h prior time-of-infection (TOI) and no pretreatment; (C) Virucidal assay where HAdV 5 virions were pretreated with 200 μM of butenolide ketone 3 prior addition to A549 cells and analyzed after 24 h.
This was primarily to investigate in which stage of the viral infectious cycle that the butenolide ketone 3 inhibited and consequently to reduce the number of possible drug-targets for further mode-of-action analysis. […] Simultaneous addition of 200 μM of 3 and virus (0 h) reduced the viral replication to below 20%, which is consistent with Figure 5. […]
^35S labelling of HAdV 5 was performed as previously described as well as the binding experiment. […] The cell-associated radioactivity was measured using a liquid scintillation counter (Wallac 1409, Perkin-Elmer, Waltham, MA, USA).

HAdV 5 virions = assay: virucidal assay; format: cell-based, human adenovirus type 5 in A549 cells; conditions: virions incubated with 200 μM for 2 h before infection, qPCR after 24 h
Description: as §3
This was primarily to investigate in which stage of the viral infectious cycle that the butenolide ketone 3 inhibited and consequently to reduce the number of possible drug-targets for further mode-of-action analysis. […]
The HAdV type 5 stock was diluted in DMEM (Sigma-Aldrich, St. Louis, MO, USA) with 2% FBS (Gibco®, Life Technologies, Grand Island, NY, USA) to the appropriate concentration to be added per well. […] In parallel, an identical mixture with no incubation time was added to wells as a control and the antiviral activity was analyzed 24 h post infection with qPCR assay.

Row | SMILES | EC50 (HAdV type 5 [1]) [µM] | viability at 24 h, 400 µM [2] [%] | viability at 24 h, 800 µM [2] [%] | concentration above which the viability of the cells is significantly reduced (A549 cells; 24 h) | anti-adenoviral activity (in words) (HAdV type 5 [1]) | other results
1 | C[C@H](O)[C@H](C)CCCCC[C@H]1C=CC(=O)O1 [Compound 1a] | 113 | 98 ± 6 | 96 ± 4 |  |  | 
2 | CCC(C)(O)CCCCC[C@H]1C=CC(=O)O1 (some centres unmarked) [Compound 2] | 183 | 106 ± 7 | 100 ± 3 |  |  | 
3 | CC(=O)[C@H](C)CCCCC[C@H]1C=CC(=O)O1 [Compound 3] | 91 | 102 ± 5 | 101 ± 3 |  |  | cytotoxicity (in words) (A549 cells; XTT, concentrations tested): no cytotoxicity; cytotoxicity at the highest concentration (in words) ([3]; 2 mM, XTT (Figure 6)): no prominent cytotoxicity; also recorded: did not affect the viability of FSU cells to a great extent; viral replication, % of non-treated infected control (HAdV type 5 [4]; 200 μM added simultaneously with virus (0 h), qPCR 24 h after infection): below 20%; effect on viral infection (in words) (HAdV type 5 [4]; cells pre-incubated with 200 μM for four hours prior to the addition of virus, qPCR at 24 h): completely blocked the viral infection; binding of the virus to the cells (in words) [5]: did not reduce the binding of the virus to the cells; virucidal activity (in words) (HAdV 5 virions): did not differ between the pretreated and non-pretreated virions
4 | CCC(C)CCCCCC1C=CC(=O)O1 (centres unmarked) [Compound 4] | 90 | 3 ± 1 | 3 ± 1 | above 0.2 mM |  | viability of A549 cells (in words) (A549 cells; 100 μM, 24 h, XTT (Figure 6)): in line with untreated DMSO control; cytotoxicity on A549 cells (in words) (A549 cells; 200 μM, 24 h, XTT (Figure 6)): toxicity was strongly decreased; viability of A549 cells (in words) (A549 cells; 400 and 800 μM, 24 h, XTT): close to zero; concentration showing cytotoxicity relative to EC50 (A549 cells; cytotoxic concentration compared with the EC50 on HAdV type 5): approximately three times its EC50 value; viability of FSU cells (in words) ([3]; 100 μM, XTT (Figure 6)): in line with untreated DMSO control; cytotoxicity on FSU cells (in words) ([3]; 200 μM, XTT (Figure 6)): toxicity was strongly decreased; viability of FSU cells (in words) ([3]; 400 and 800 μM, XTT): almost zero
5 | CC(=O)[C@H](C)CCCCC[C@H]1CCC(=O)O1 [Compound 5] |  |  |  |  | eliminated the antiviral activity | 
6 | CC[C@H](C)CCCCC[C@H]1CCC(=O)O1 [Compound 6] |  |  |  | above 0.4 mM | eliminated the antiviral activity | 
